Assay results as given in patent US8497278B2, “Imidazo[1,2-a]pyridine compounds” (priority 2008, dated 2013).

How the values were obtained:
[1] = test system: central benzodiazepine receptors; assay: Central benzodiazepine receptor binding (test of Speth et al.); details: 1000 nM of the compound
Procedure, shortened: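 Radioligand binding by the Speth et al. method. Specific binding is total minus nonspecific binding, the latter measured with excess unlabelled ligand. Compounds screened at 1.0E-09, 1.0E-07 and 1.0E-05 M in single determination; values given as percent inhibition at 1000 nM compound.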

[2] = target: T1, α1 subtype containing GABA-A receptors (Homo sapiens, UniProt P14867+P18507); assay: Two-electrode voltage clamp electrophysiology in Xenopus oocytes, potentiation of GABA EC20 response, α1; format: cell-based; details: 100 nM compound; for activation at 0.1 µM: read-out: Percentage of potentiation alpha1
T1 construct: expressed in transfected cells; host or cells: Xenopus laevis oocytes, cRNA injected
Procedure, shortened: (§1)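 Potentiation of the GABA EC20 current by 100 nM compound is the read-out, recorded by two-electrode voltage clamp at −80 mV in oocytes carrying human α1, α2, α3 or α5 with β3 and γ2L. Baseline came from three 20-s applications of 60 μM GABA.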

[3] = target: T2, α2 subtype containing GABA-A receptors (Homo sapiens, UniProt P18507+P47869); assay: Two-electrode voltage clamp electrophysiology in Xenopus oocytes, potentiation of GABA EC20 response, α2; format: cell-based; details: 100 nM compound; for activation at 0.1 µM: read-out: Percentage of potentiation alpha2
T2 construct: expressed in transfected cells; host or cells: Xenopus laevis oocytes, cRNA injected
Procedure, shortened: as §1

Swiss Webster (CFW) mice = assay: Four Plate Test (FPT); format: in vivo; details: mouse, 30 min before test, 2 min session
Excerpt: Four Plate Test (FPT) Protocol: The four plate test (FPT) is an animal model of anxiety in which simple ongoing behavior (exploration of novel surroundings) is suppressed by the delivery of mild electric foot-shock contingent to quadrant crossing (Aron, et al., 1971). Clinically effective classes of anxiolytic compounds such as benzodiazepines, selective serotonin reuptake inhibitors, or 5-HT1A receptor agonists produce a marked anti-punishment effect (an increase in punished crossings), which is thought to indicate anxiolytic activity (Aron, et al., 1971; Bourin, et al., 1992; Hascoet, et al., 2000; Ring, et al., 2006). The four plate apparatus (Bioseb, Chaville France) consists of a cage (18×25×16 cm) floored by four identical rectangular metal plates (8×11 cm) separated from one another by a gap of 4 mm. The plates are connected to a shocker unit that can generate electric foot shocks.
Male Swiss Webster (CFW) mice from Charles River (Wilmington, Mass.) were used for the FPT. Mice were received at 3-weeks of age. Upon receipt, mice were assigned unique identification numbers (tail marked) and were group housed with 4 mice per cage in mouse ventilated racks. All animals remained housed in groups of four during the remainder of the study. All mice were acclimated to the colony room for at least one week prior to testing and were subsequently tested at an average age of 4 weeks of age. During the period of acclimation, mice […] were examined on a regular basis, handled, and weighed to assure adequate healtH, D and suitability. Animals were maintained on a 12/12 light/dark cycle. The room temperature was maintained between 20 and 23° C. with a relative humidity maintained between 30% and 70%. Chow and water were provided ad libitum for the duration of the study. In each test, animals were randomly assigned across treatment groups. Alprazolam (0.3 mg/kg) was used as the positive control. Compounds of the present invention, vehicle (45% hydroxypropyl beta-cyclodextrin) and alprazolam were administered orally to all groups (n=10 mice per group) 30 minutes prior to behavioral testing. Following pretreatment, mice were gently placed in the four plate chamber and allowed to explore the enclosure for 18 seconds. After the exploration period, every time the mouse crossed from one plate to another, the experimenter, blind to the dosing conditions, administered a mild electric foot-shock, and referred to as a punished crossing. The intensity and duration of the foot-shock were 0.5 mA for 0.5 seconds. The number of punished crossings was recorded during the 2 min test session. The plates were thoroughly cleaned with 70% ethanol immediately after each mouse. All data were analyzed using an analysis of variance (ANOVA) followed by Fisher's PLSD post hoc test. An effect was considered significance if p<0.05. Statistical outliers above or below 2 standard deviations from the mean in any of the […] were removed from the final analysis.

T2 sequence (P47869 29-451): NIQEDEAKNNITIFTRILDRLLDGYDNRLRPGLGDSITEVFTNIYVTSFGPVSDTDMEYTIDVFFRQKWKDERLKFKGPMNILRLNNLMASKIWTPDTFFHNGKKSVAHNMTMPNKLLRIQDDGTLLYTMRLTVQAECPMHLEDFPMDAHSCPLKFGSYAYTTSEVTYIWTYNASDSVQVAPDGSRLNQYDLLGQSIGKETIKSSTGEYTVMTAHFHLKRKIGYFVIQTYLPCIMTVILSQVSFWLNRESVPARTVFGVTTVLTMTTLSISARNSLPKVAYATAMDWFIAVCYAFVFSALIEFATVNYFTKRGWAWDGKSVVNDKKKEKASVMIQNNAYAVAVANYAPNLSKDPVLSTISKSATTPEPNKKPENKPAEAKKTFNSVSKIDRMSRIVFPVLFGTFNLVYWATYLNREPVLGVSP
T2 sequence (P28472 26-473 partner): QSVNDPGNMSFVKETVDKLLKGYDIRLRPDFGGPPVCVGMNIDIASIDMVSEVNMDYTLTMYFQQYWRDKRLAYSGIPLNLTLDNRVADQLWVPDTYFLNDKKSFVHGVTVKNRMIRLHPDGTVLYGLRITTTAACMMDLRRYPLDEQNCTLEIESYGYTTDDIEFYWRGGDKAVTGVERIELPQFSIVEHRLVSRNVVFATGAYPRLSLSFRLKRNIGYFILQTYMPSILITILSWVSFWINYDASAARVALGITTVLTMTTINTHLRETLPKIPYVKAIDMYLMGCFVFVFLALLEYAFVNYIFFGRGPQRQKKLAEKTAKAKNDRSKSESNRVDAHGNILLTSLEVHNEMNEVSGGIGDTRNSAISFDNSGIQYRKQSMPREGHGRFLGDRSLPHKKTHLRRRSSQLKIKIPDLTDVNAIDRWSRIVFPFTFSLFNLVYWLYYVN
T2 sequence (P18507 40-475): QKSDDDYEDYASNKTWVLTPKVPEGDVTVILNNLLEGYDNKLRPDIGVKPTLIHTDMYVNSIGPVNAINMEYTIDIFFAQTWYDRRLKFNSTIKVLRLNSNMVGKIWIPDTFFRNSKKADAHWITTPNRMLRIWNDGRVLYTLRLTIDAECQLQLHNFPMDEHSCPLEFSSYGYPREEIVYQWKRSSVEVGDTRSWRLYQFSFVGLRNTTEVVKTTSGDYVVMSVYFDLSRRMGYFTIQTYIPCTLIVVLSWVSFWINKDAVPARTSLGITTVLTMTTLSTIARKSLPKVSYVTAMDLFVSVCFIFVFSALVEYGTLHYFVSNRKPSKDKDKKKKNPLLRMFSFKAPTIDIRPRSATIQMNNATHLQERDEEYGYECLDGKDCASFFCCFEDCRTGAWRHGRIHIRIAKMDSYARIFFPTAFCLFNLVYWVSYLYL
T1 sequence (P14867 28-456): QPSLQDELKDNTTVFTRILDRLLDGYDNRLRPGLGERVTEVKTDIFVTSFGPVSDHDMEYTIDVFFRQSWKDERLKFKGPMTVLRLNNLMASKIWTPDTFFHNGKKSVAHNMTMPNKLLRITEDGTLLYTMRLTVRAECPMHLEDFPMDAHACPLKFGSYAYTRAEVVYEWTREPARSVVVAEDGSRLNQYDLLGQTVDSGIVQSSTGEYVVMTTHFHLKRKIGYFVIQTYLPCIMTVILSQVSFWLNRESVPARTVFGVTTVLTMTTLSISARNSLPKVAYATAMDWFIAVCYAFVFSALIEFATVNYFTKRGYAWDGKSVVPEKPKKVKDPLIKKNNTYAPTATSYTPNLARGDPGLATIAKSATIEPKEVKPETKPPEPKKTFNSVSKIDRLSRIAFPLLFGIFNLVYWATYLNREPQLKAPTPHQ
T1 sequence (P28472 26-473 partner): as the sequence (P28472 26-473 partner) above
T1 sequence (P18507 40-475): as the sequence (P18507 40-475) above

Row | Compound | % Inhibition at 1000 nM for CBZD [1] | activation at 0.1 µM [2] [%] | activation at 0.1 µM [3] [%] | Number of Punished Crossings Mean ± S.E.M. (Swiss Webster (CFW) mice; 3 mg/kg PO) | Number of Punished Crossings Mean ± S.E.M. (Swiss Webster (CFW) mice; 10 mg/kg PO) | Number of Punished Crossings Mean ± S.E.M. (Swiss Webster (CFW) mice; 30 mg/kg PO) | Percentage of potentiation alpha1 [2] | Percentage of potentiation alpha2 [3]
1 | Clc1ccc(-c2nc3cccnn3c2Cn2cncn2)cc1 [Compound 32, 3-((1H-1,2,4-triazol-1-yl)methyl)-2-(4-chlorophenyl)imidazo[1,2-b]pyridazine] | ++ (percentage of inhibition of central BZD site binding is greater than 80% in the presence of 1000 nM of the compound) | 10 to 50 | 10 to 50 | 6.6 ± 0.72 | 6.6 ± 0.67 | 5.7 ± 0.94 |  | 
2 | NC(=O)c1ncn(Cc2c(-c3ccc(Cl)cc3)nc3ccccn23)n1 [Compound 72, 1-((2-(4-chlorophenyl)imidazo[1,2-a]pyridin-3-yl)methyl)-1H-1,2,4-triazole-3-carboxamide] | ++ (percentage of inhibition of central BZD site binding is greater than 80% in the presence of 1000 nM of the compound) | 10 to 50 | ≥ 50 | 5.8 ± 0.63 | 5.2 ± 0.47 | 4.8 ± 0.36 |  | 
3 | CNC(=O)c1nccn1Cc1c(-c2ccc(Cl)cc2)nc2ccccn12 [Compound 77, 1-((2-(4-chlorophenyl)H-imidazo[1,2-a]pyridin-3-yl)methyl)-N-methyl-1H-imidazole-2-carboxamide] | ++ (percentage of inhibition of central BZD site binding is greater than 80% in the presence of 1000 nM of the compound) |  |  | 4.3 ± 0.26 | 4.6 ± 0.31 | 5.0 ± 0.37 | 0 (percentage of potentiation is between about 10% to about −10%) | + (percentage of potentiation is greater than or equal to 10% but less than 50% in the presence of 100 nM of the compound)
4 | Cc1ccn(Cc2c(-c3ccc(Cl)cc3)nc3ccccn23)c(=O)n1 [Compound 105, 1-((2-(4-chlorophenyl)imidazo[1,2-a]pyridin-3-yl)methyl)-4-methylpyrimidin-2(1H)-one] |  | 10 to 50 | 10 to 50 | 6.7 ± 0.34 | 5.5 ± 0.60 | 5.6 ± 0.52 |  | 
5 | Cn1ncnc1Cc1c(-c2ccc(F)cc2)nc2ccc(F)cn12 [Compound 200, 6-fluoro-2-(4-fluorophenyl)-3-((1-methyl-1H-1,2,4-triazol-5-yl)methyl)imidazo[1,2-a]pyridine] | ++ (percentage of inhibition of central BZD site binding is greater than 80% in the presence of 1000 nM of the compound) | 10 to 50 | ≥ 50 | 7.2 ± 0.52 | 8.6 ± 0.43 | 7.5 ± 0.39 |  | 
6 | Clc1ccc(-c2nc3ccccn3c2Cc2ncn[nH]2)cc1 [Compound 211, 3-((1H-1,2,4-triazol-5-yl)methyl)-2-(4-chlorophenyl)imidazo[1,2-a]pyridine] |  | 10 to 50 | ≥ 50 | 7.8 ± 0.59 | 8.6 ± 0.85 | 8.9 ± 0.57 |  | 
